The values below come from patent US11739064B2, “HDAC inhibitors and therapeutic methods using the same” (THE BOARD OF TRUSTEES OF THE UNIVERSITY OF ILLINOIS, priority 2015, dated 2023).

One assay has as its system BxPC3. Description: In vitro growth inhibition (GI), MTS cell proliferation assay (Table 5), BxPC3. It counts as cell-based. The note with it: Homo sapiens, BXPC-3, 72 hours post-treatment. Background: Tetrazolium assays rely on reduction of a dye to a coloured formazan, in cell work by metabolically active cells.
For another assay, the target named is Human HDAC1 (Homo sapiens, UniProt Q13547). In words: In vitro HDAC inhibition assay, HDAC1. The note with it: read-out: HDAC isoform IC50, HDAC1; NI = No inhibition at a concentration of 50 pM (footnote b).
Sequence of Human HDAC1 (Q13547 whole entry, canonical isoform): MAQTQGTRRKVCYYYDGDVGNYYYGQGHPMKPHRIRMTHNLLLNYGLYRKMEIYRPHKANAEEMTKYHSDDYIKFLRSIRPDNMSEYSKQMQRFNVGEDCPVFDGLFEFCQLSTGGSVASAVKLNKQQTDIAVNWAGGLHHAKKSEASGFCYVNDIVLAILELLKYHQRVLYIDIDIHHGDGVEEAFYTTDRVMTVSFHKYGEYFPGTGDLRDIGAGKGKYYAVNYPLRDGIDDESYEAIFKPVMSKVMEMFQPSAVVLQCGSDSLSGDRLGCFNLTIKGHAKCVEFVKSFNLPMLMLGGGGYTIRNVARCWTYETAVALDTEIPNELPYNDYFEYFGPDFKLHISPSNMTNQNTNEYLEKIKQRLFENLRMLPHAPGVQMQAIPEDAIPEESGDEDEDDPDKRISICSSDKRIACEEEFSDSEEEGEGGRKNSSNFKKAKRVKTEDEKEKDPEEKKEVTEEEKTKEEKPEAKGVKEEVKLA
For another assay, the target named is HDAC4 (Homo sapiens, UniProt P56524). In words: HDAC isoform inhibition, HDAC4. It counts as biochemical.
Sequence of HDAC4 (P56524 whole entry, canonical isoform): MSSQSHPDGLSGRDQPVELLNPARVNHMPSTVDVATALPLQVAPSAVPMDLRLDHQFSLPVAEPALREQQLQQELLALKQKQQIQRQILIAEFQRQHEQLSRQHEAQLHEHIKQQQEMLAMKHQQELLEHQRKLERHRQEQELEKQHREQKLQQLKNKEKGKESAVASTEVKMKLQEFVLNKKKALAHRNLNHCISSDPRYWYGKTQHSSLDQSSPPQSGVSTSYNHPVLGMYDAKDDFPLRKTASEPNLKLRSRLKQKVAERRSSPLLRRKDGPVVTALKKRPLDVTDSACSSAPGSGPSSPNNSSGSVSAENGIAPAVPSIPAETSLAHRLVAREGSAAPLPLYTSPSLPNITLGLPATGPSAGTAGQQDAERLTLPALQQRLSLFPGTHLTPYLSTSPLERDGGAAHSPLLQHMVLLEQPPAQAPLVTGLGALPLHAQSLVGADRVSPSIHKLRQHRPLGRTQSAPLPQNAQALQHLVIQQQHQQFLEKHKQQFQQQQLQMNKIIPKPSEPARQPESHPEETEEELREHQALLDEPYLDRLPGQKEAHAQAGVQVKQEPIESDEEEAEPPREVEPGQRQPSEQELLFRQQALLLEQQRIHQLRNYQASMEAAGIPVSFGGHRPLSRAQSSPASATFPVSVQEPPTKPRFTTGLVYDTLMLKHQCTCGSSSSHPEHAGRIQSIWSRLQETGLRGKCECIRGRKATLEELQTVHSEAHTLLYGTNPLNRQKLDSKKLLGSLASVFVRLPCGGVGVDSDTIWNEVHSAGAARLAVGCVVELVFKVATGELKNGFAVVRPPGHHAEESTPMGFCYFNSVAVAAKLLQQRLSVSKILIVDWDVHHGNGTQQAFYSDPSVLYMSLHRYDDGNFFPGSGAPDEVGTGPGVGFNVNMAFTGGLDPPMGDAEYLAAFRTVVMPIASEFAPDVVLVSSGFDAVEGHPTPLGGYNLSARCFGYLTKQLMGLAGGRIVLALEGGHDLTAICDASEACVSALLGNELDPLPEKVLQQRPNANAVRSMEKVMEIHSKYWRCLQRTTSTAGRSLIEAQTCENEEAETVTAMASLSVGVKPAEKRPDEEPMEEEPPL
A further assay deals with T1, HDAC10 (Homo sapiens, UniProt Q969S8).
T1 sequence (Q969S8 1-669): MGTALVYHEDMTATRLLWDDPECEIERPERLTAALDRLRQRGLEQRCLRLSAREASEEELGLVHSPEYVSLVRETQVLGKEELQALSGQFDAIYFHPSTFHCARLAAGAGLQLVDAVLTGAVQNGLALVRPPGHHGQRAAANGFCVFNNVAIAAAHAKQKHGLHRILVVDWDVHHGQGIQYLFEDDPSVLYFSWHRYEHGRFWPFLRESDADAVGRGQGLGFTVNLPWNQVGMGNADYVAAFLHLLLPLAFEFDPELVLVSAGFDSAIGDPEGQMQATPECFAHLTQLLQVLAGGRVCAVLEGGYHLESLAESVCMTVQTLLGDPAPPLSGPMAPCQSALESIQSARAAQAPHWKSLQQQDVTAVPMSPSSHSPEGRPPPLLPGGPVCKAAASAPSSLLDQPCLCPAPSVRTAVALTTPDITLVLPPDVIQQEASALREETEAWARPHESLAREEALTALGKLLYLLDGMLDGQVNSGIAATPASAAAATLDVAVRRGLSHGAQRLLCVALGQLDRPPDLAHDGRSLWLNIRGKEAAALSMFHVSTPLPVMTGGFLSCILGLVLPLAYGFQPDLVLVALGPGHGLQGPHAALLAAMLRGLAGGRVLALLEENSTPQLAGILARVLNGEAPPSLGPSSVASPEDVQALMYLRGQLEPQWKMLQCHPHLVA
In words: In vitro HDAC inhibition assay, HDAC10. The assay is classed as biochemical.

Another assay concerns the target HDAC5 (Homo sapiens, UniProt Q9UQL6). In words: HDAC isoform inhibition, HDAC5. It counts as biochemical.
The target in the next assay is T2, Human HDAC6 (Homo sapiens, UniProt Q9UBN7).
T2 construct: Full length with N-terminal GST tag, MW=159 kDa; GST (N); host or cells: baculovirus expression system, Sf9 cells
T2 sequence (Q9UBN7 1-1215): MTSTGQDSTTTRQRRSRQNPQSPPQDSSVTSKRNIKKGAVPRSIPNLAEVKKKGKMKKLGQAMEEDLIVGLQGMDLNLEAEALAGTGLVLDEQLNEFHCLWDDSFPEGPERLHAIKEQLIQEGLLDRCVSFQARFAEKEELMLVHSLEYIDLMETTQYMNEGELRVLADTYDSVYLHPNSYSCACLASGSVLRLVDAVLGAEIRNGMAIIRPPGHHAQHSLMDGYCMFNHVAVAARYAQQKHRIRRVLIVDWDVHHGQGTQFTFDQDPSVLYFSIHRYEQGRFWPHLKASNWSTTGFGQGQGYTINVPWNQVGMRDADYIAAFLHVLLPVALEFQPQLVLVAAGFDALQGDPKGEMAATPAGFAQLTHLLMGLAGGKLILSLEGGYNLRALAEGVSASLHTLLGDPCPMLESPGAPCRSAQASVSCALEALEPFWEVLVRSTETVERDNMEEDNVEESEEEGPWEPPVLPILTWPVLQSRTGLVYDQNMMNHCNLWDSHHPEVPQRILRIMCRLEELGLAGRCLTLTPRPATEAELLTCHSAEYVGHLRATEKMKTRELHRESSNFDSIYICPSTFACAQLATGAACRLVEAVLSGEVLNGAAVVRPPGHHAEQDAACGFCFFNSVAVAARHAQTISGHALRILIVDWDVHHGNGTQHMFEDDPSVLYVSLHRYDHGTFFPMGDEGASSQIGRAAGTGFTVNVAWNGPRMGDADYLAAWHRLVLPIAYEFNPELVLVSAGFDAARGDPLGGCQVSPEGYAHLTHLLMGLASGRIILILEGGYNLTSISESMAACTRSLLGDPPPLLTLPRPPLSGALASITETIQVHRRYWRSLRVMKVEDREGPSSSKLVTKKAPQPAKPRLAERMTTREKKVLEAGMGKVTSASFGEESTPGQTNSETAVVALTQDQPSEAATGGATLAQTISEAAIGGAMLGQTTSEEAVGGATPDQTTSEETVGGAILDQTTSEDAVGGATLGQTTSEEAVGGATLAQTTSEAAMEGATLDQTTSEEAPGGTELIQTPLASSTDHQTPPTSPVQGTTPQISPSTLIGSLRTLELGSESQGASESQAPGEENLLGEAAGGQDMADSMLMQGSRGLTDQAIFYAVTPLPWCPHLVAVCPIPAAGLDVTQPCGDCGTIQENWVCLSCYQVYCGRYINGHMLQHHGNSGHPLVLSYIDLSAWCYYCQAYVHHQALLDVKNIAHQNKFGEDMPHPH
Description: In vitro HDAC inhibition assay, HDAC6. The conditions noted are these: read-out: HDAC isoform IC50, HDAC6. It counts as biochemical.

In another assay the target is HDAC2 (Homo sapiens, UniProt Q92769). Description: In vitro HDAC inhibition assay, HDAC2. It counts as biochemical.
Sequence of HDAC2 (Q92769 whole entry): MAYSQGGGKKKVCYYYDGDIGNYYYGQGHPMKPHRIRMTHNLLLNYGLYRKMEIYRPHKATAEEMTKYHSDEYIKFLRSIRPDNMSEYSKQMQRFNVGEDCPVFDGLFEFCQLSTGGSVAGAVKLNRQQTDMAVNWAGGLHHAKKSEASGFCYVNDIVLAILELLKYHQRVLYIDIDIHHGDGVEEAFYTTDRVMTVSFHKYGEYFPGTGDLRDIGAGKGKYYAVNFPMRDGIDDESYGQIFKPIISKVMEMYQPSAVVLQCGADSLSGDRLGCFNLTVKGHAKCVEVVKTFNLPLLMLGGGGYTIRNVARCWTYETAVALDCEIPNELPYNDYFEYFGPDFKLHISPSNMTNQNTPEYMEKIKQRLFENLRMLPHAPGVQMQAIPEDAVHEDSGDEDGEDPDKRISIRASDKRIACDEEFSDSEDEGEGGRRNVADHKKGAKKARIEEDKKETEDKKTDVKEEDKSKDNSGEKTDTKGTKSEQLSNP

The GI50 is the concentration that inhibits growth by half. High values mean less potent growth inhibition, low ones more potent growth inhibition. The IC50 is the concentration needed to halve the response being measured.

Sequence of HDAC5 (Q9UQL6 whole entry, canonical isoform): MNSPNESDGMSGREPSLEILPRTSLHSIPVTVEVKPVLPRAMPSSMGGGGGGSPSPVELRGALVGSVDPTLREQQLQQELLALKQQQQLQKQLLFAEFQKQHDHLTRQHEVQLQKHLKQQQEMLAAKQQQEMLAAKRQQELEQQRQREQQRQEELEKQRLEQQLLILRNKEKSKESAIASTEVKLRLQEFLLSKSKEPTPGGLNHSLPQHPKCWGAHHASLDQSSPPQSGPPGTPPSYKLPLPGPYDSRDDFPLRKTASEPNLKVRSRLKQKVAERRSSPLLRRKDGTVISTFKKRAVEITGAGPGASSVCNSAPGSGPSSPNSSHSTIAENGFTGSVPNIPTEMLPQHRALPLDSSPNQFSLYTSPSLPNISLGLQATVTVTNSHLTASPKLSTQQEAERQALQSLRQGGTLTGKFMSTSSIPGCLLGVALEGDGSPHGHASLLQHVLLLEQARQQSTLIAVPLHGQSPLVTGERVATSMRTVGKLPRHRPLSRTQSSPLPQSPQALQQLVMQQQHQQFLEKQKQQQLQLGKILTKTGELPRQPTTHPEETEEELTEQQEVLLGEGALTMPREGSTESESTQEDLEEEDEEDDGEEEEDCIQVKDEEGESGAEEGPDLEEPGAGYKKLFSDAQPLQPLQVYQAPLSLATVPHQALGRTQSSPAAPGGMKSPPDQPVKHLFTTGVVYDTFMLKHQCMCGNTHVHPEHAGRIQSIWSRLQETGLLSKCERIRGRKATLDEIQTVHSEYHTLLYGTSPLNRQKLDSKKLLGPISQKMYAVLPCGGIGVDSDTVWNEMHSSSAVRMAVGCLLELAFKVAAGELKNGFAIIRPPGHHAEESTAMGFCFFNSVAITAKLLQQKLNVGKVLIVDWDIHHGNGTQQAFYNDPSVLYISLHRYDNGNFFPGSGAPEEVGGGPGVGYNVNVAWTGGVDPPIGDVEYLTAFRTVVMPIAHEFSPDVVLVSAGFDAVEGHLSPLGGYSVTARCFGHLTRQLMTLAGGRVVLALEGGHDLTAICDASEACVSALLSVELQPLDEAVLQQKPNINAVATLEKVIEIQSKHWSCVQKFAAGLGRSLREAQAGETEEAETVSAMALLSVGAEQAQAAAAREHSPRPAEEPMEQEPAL

Consider `CC(C)(C)OC(=O)Nc1ccc(-c2cc(C(=O)NCCc3cc(C(=O)NO)no3)no2)cc1` [Compound 6, (4-{3-[2-(3-Hydroxycarbamoyl-isoxazol-5-yl)-ethylcarbamoyl]-isoxazol-5-yl}-phenyl)-carbamic acid tert-butyl ester], for which the GI50 in the assay with BxPC3 turned out to be 29 µM. Moreover, the IC50 on Human HDAC1 is 16.9 µM; against HDAC4 it was 130 µM; on HDAC10 (NI = No inhibition at a concentration of 50 pM (footnote b), read-out: HDAC isoform IC50, HDAC10) it was greater than 100 µM; against HDAC5, 34.5 µM; at Human HDAC6 it was 0.006 µM; on HDAC2 (NI = No inhibition at a concentration of 50 pM (footnote b), read-out: HDAC isoform IC50, HDAC2), 123 µM. On HDAC4, the “Selectivity for HDAC6 (fold) over HDAC4” value amounted to 21600 fold. In addition, the “Selectivity for HDAC6 (fold) over HDAC10” value at HDAC10 is given as greater than 16000 fold. Also, the “Selectivity for HDAC6 (fold) over HDAC5” value on HDAC5 is on record as 5750 fold. Moreover, on HDAC2, the “Selectivity for HDAC6 (fold) over HDAC2” value came to 20500 fold.
